Earlier results, collected in patent US20050089572A1, “Controlled release drug delivery system of pravastatin” (priority 2002, published 2005).

Conditions: pH 3 or less as found in the stomach; degrades to lactone and 3-α-hydroxy-isopravastatin

stability at low pH: very unstable
Compound: CC[C@H](C)C(=O)O[C@H]1C[C@H](O)C=C2C=C[C@H](C)[C@H](CC[C@@H](O)C[C@@H](O)CC(=O)O)[C@H]21 [Pravastatin sodium, (+)-(3R, 5R)-3,5-dihydroxy-7-[(1S,2S,6S,8S,8aR)-6-hydroxy-2-methyl-8-[(S)-2-methylbutyryloxy]-1,2,6,7,8,8a-hexahydro-1-naphthyl] heptanoate]
